In patent US11512111B2, “Yeats inhibitors and methods of use thereof” (The University of Hong Kong, priority 2017, dated 2022):
Residues, ends and D or L forms follow the SMILES beside them. *: point of attachment. Oxazole(5-CO) = O=C(c1cnco1)*

Legend:
[1] = target: T1, AF9 YEATS domain (Homo sapiens, UniProt P42568); experiment: Photo-cross-linking-based competition assay (photoaffinity probe, click chemistry, in-gel fluorescence); type: binding; conditions: for IC50: competition with photoaffinity probe, in-gel fluorescence
T1 construct: His-AF9 (1-138); His (N); made in house; host or cells: E. coli Rosetta
T1 sequence (P42568 1-138): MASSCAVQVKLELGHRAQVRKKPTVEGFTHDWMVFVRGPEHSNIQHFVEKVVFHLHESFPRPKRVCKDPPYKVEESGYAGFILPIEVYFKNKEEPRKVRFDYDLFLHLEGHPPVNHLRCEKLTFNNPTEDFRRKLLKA
Procedure: Mobile phase used were water with 0.1% trifluoroacetic acid (buffer A) and 90% acetonitrile in water with 0.1% trifluoroacetic acid (buffer B). The purity (>95%) and identity of peptides were confirmed by LC-MS. The inhibitory activities of the inhibitors were determined by a photo-cross-linking-based competition assay. […] The reactions were incubated for 1 h at r.t . . . . The reactions were quenched by adding 5 volumes of ice-cold acetone and placed at −20° C. overnight to precipitate proteins. After protein precipitation, samples were centrifuged at 6000×g for 5 min at 4° C. The supernatant was discarded and the pellet was washed with ice-cooled methanol twice and air-dried for 10 min. […] Samples were then resolved by SDS-PAGE. The labeled proteins were visualized by scanning the gel on a Typhoon 9410 variable mode imager (excitation 532 nm, emission filter 580 nm). A photo-cross-linking based method was used in this study to estimate inhibitory activity (FIG. 28). This method requires the use of a photoaffinity probe. The probe (probe 1 (SEQ ID NO:48), see below) is derived from a crotonylated peptide, ligand of the protein, carrying a photo-cross-linker and a terminal alkyne as bioorthogonal. The YEATS domain is incubated and bound to the probe through Kcr-dependent recognition. Upon UV-irradiation, the photo-cross-linker is activated and rapidly cross-linked to the protein, converting the non-covalent protein-probe interaction into a covalent linkage. The probe-labeled protein is subsequently conjugated to an azide-functionalized fluorescence dye (for example, rhodamine-N3, Rho-N3) via Cu(I)-catalyzed azide-alkyne cycloaddition (CuAAC, or “click” chemistry). After SDS-PAGE, the protein can be visualized by in-gel fluorescence scanning. If photo-cross-linking of the YEATS domain with photoaffinity probe is performed in the presence of an inhibitor, which occupies the Kcr binding pocket of the YEATS domain and thus inhibits the protein-probe interaction, the percentage of the YEATS domain in the sample that is labeled by the probe will be reduced. The in-gel fluorescence intensity detected will also be decreased. By varying the concentration of inhibitor added in the sample and quantifying the resulting fluorescence intensities, a competition curve of the inhibitor toward the protein-probe interaction will be obtained, which can be used to estimate the IC50 value. Due to the covalent nature of photo-cross-linking, weak protein-protein interactions can be captured and eventually visualized. The protein concentration used in the assay can be as low as several nanograms per microliter, while the fluorescence signal can still be robustly detected and quantified.

[2] = target: T2, ENL YEATS domain (Homo sapiens, UniProt Q03111); experiment: Photo-cross-linking-based competition assay; type: binding; conditions: for IC50: competition with photoaffinity probe, in-gel fluorescence
T2 construct: His-SUMO-ENL (1-138); His (N); SUMO (N); made in house; host or cells: E. coli Rosetta
T2 sequence (Q03111 1-138): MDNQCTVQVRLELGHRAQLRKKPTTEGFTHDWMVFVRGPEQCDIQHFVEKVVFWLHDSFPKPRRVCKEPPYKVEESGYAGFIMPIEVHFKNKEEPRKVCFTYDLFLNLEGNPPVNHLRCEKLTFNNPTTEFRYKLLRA

[3] = target: T3, GAS41 YEATS domain (Homo sapiens, UniProt O95619); experiment: Photo-cross-linking-based competition assay; type: binding; conditions: competition with photoaffinity probe, in-gel fluorescence
T3 construct: His-Gas41 (15-159); His (N); made in house; host or cells: E. coli Rosetta
T3 sequence (O95619 15-159): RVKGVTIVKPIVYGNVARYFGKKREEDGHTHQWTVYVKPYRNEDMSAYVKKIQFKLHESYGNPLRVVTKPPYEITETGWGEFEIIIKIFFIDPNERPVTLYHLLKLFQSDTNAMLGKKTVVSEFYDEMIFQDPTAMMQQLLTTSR
Procedure: (§1) Peptides were synthesized on a Rink-Amide MBHA resin followed by a standard Fmoc-based solid-phase peptide synthesis protocol. After all amino acids were coupled, protecting groups and cleavage of peptides from the resin were done by incubating the resin with a cleavage cocktail containing 95% trifluoroacetic acid, 2.5% triisopropylsilane, 1.5% H2O and, 1% thioanisole for 2 h. Peptides were purified by preparative HPLC with an XBridge Prep OBDTM C18 column (30 mm×250 mm, 10 μm, Waters). Mobile phase used were water with 0.1% trifluoroacetic acid (buffer A) and 90% acetonitrile in water with 0.1% trifluoroacetic acid (buffer B). The purity (>95%) and identity of peptides were confirmed by LC-MS. The inhibitory activities of the inhibitors were determined by a photo-cross-linking-based competition assay.
(§2) The probe 4.1 or 4.2 (2 μM) with indicated concentrations of different inhibitors was incubated with YEATS domain proteins (5 or 20 ng/μL) in binding buffer (50 mM HEPES, 150 mM NaCl, 2 mM MgCl2, 0.1% Tween-20, 20% glycerol, pH 7.5, with or without 50 ng/μL BSA) for 10 min at 4° C. Then, the samples were irradiated at 365 nm using a UV lamp for 20 min in a 96-well plate on ice.
(§3) To the prepared photo-cross-linking samples, 100 μM Rho-N3 (10 mM stock in DMSO) was added, followed by 1 mM TCEP (freshly prepared 50 mM stock in H2O), 100 μM TBTA (10 mM stock in DMSO), and finally the reactions were initiated by the addition of 1 mM CuSO4 (freshly prepared 50 mM stock in H2O). The reactions were incubated for 1 h at r.t . . . . The reactions were quenched by adding 5 volumes of ice-cold acetone and placed at −20° C. overnight to precipitate proteins.
(§4) After protein precipitation, samples were centrifuged at 6000×g for 5 min at 4° C. The supernatant was discarded and the pellet was washed with ice-cooled methanol twice and air-dried for 10 min. The proteins were resuspended in 1×LDS sample loading buffer (Invitrogen) with 50 mM DTT, and heated at 80° C. for 8 min. Samples were then resolved by SDS-PAGE. The labeled proteins were visualized by scanning the gel on a Typhoon 9410 variable mode imager (excitation 532 nm, emission filter 580 nm).
(§5) A photo-cross-linking based method was used in this study to estimate inhibitory activity (FIG. 28). This method requires the use of a photoaffinity probe. The probe (probe 1 (SEQ ID NO:48), see below) is derived from a crotonylated peptide, ligand of the protein, carrying a photo-cross-linker and a terminal alkyne as bioorthogonal.
(§6) The YEATS domain is incubated and bound to the probe through Kcr-dependent recognition. Upon UV-irradiation, the photo-cross-linker is activated and rapidly cross-linked to the protein, converting the non-covalent protein-probe interaction into a covalent linkage. The probe-labeled protein is subsequently conjugated to an azide-functionalized fluorescence dye (for example, rhodamine-N3, Rho-N3) via Cu(I)-catalyzed azide-alkyne cycloaddition (CuAAC, or “click” chemistry). After SDS-PAGE, the protein can be visualized by in-gel fluorescence scanning. If photo-cross-linking of the YEATS domain with photoaffinity probe is performed in the presence of an inhibitor, which occupies the Kcr binding pocket of the YEATS domain and thus inhibits the protein-probe interaction, the percentage of the YEATS domain in the sample that is labeled by the probe will be reduced. The in-gel fluorescence intensity detected will also be decreased. By varying the concentration of inhibitor added in the sample and quantifying the resulting fluorescence intensities, a competition curve of the inhibitor toward the protein-probe interaction will be obtained, which can be used to estimate the IC50 value. Due to the covalent nature of photo-cross-linking, weak protein-protein interactions can be captured and eventually visualized. The protein concentration used in the assay can be as low as several nanograms per microliter, while the fluorescence signal can still be robustly detected and quantified. […]

[4] = target: T4, YEATS2 domain (Homo sapiens, UniProt Q9ULM3); experiment: Photo-cross-linking-based competition assay; type: binding; conditions: competition with photoaffinity probe, in-gel fluorescence
T4 construct: His-SUMO-YEATS2 (201-332); His (N); SUMO (N); made in house; host or cells: E. coli Rosetta
T4 sequence (Q9ULM3 201-332): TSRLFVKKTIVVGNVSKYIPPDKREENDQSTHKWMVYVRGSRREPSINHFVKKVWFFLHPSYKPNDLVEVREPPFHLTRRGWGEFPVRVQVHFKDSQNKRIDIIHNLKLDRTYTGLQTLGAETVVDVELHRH
Procedure: as §1, §2, §3, §4, §5, §6

[5] = target: T5, ENL (Homo sapiens, UniProt Q03111); experiment: Cellular thermal shift assay (CETSA) in MOLM-13 (FLAG-ENL) cells; type: cell-based; conditions: MOLM13 (FLAG-ENL), 50 μM, 16 hours, anti-FLAG
T5 construct: expressed in transfected cells; host or cells: MOLM-13 (FLAG-ENL) cells
T5 sequence (Q03111 1-559): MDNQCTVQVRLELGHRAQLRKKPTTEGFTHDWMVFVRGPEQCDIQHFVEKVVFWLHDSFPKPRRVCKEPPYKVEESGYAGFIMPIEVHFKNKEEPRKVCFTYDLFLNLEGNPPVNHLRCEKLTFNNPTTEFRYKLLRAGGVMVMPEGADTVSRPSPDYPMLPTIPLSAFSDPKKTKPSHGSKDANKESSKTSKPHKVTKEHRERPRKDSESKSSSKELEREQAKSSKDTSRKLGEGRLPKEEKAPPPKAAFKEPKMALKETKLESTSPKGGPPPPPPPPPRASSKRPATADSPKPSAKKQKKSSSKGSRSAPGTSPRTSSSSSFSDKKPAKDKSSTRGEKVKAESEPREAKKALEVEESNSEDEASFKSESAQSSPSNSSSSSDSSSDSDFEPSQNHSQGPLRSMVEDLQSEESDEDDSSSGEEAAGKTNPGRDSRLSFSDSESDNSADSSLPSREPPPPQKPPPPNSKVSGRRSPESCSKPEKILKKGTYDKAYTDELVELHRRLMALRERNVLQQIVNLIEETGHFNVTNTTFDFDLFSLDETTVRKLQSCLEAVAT
Procedure: We next applied the cellular thermal shift assay (CETSA) to examine if XL-13m was cell permeable and could target ENL in living cells. MOLM-13 (FLAG-ENL) were treated with XL-13m for […] and then heated at different temperature to denature and precipitate proteins. […] Soluble proteins were extracted by freeze-thaw cycle and subjected to western blotting analysis.
MOLM13 (FLAG-ENL) cells were incubated with or without 50 μM compound for 16 hours and then were collected for cellular thermal shift assay (CETSA) as previously reported. Anti-FLAG antibody was used to detect ENL proteins and γ-actin blotting served as negative control.

[6] = target: T1, AF9 YEATS domain; experiment: Isothermal titration calorimetry (ITC); type: binding; conditions: ITC
Procedure: (§7) ^1H and ^13C NMR spectra were recorded on Bruker UltraShield 400 or 600 MHz spectrometers and were calibrated using residual undeuterated solvent as an internal reference. Chemical shifts were reported in ppm, and coupling constant J was reported in Hz. Peptides were analyzed by LC-MS with an Agilent 1260 Infinity HPLC system connected to a Thermo Finnigan LCQ DecaXP MS detector. Peptides were purified on a preparative HPLC system with Waters 2535 Quaternary Gradient Module, Waters 515 HPLC pump, Waters SFO System Fluidics Organizer, and Waters 2767 Sample Manager. Photo-cross-linking was performed with an ENF-260C/FE hand-hang UV lamp (Spectroline). In-gel fluorescence scanning was performed using a Typhoon 9410 variable mode imager from GE Healthcare Life Sciences (excitation 532 nm, emission 580 nm). Images of Coomassie blue staining were acquired by MyECL Imager from Thermo Scientific. All images were processed by ImageJ software (National Institutes of Health), and contrast was adjusted appropriately. ITC experiments were performed with a MicroCal iTC200 titration calorimeter (MicroCal). IC50 and dissociation constants were fit with Origin 7.0 software package (OriginLab).
To further validate the reliability of the results obtained from the photo-cross-linking-based competition assay, we performed isothermal titration calorimetry (ITC) to determine the direct binding affinities of the inhibitors toward the AF9 YEATS domain. […] The ITC measurements were in agreement with the IC50 data, indicating the reliability of the results obtained from the photo-cross-linking-based competition assay.

[7] = target: T2, ENL YEATS domain; experiment: Isothermal titration calorimetry (ITC); type: binding
Procedure: as §7
The compound Cyclic 3 was also tested with AF9 and ENL YEATS domains.

C[C@H](NC(=O)[C@@H](NC(=O)[C@H](CCC(N)=O)NC(=O)OCc1ccccc1)[C@@H](C)O)C(=O)N[C@@H](CCCNC(=N)N)C(=O)N[C@@H](CCCCNC(=O)c1ccco1)C(N)=O [Compound 26]
IC50 [1]: 0.26 µM
IC50 [2]: 1.3 µM
activity drop on ENL compared to AF9 ([2]; ratio of IC50 values): 5 fold
IC50 [3]: 123 µM
IC50 [4]: 42.4 µM

CC(=O)N[C@@H](C)C(=O)N[C@@H](C)C(=O)N[C@@H](CCCNC(=N)N)C(=O)N[C@@H](CCCCNC(=O)c1cnco1)C(N)=O [Compound 40] (Ac-AARK(Oxazole(5-CO))-NH2)
activity on AF9 weaker than on ENL ([1]; ratio of IC50 values): 6.1 fold
thermal shift: targeting of ENL protein in living cells [5]: revealed the target of ENL protein

C[C@@H]1NC(=O)[C@H]([C@H](C)O)NC(=O)[C@@H](NC(=O)OCc2ccccc2)CCCCNC(=N)NCCC[C@H](C(=O)N[C@@H](CCCCNC(=O)c2cnco2)C(N)=O)NC1=O [Compound 80]
IC50 [2]: 12.9 µM
IC50 [3]: 53.7 µM
IC50 [4]: 22.7 µM
Kd [6]: 0.52 µM
Kd [7]: 11.4 µM

C[C@H](NC(=O)[C@@H](NC(=O)[C@H](CCC(N)=O)NC(=O)OCc1ccccc1)[C@@H](C)O)C(=O)N[C@@H](CCCNC(=N)N)C(=O)N[C@@H](CCCCNC(=O)c1cnco1)C(N)=O [Compound 27]
IC50 [1]: 0.24 µM
IC50 [3]: 14.5 µM
IC50 [4]: 98.7 µM
